Reference: patent publication US5733934A, “Antiarrythmic and cardioprotective substituted indenoylguanidines” (priority 1996, dated 1998)

What was measured:
rat hearts = conditions: isolated rat hearts; Eur. Heart J. 9 {supplement 1}: 167 (1988); cited from earlier work
Na^+ /H^+ -exchanger = target: T1, Na^+ /H^+ -exchanger (Oryctolagus cuniculus, UniProt P23791); test: Sodium-Proton exchange inhibition in rabbit erythrocytes; format: cell-based, rabbit (Albino, New Zealand strain); conditions: 37° C., 1 hour, hyperosmolar sucrose buffer, 0.1 mM Ouabain, read-out: IC50 (concentration necessary to reduce the erythrocyte sodium content to 50%)
T1 construct: Na^+ /H^+ -exchanger activity in the erythrocytes; endogenous in cells; host or cells: erythrocytes (whole blood from the ear vein) of cholesterol-fed New Zealand albino rabbits
From the text: Sodium-Proton exchange inhibition in rabbit erythrocytes:
Albino rabbits of New Zealand strain were fed with 2% cholesterol diet for six weeks prior to collecting blood for the determination of Na^+ /H^+ -exchanger activity in the erythrocytes. Eypercholesteremia has been reported to increase the exchanger activity in the rabbit erythrocytes (Scholz et al, 1990; Arteriosklerose--Neue Aspekte aus Zellbiologie und Molekulargenetik, Epidemiologie und Klinik; Assmann, G, et al, Eds, Braunschweig, Wiesbaden, Vieweg, 296-302). Blood samples were collected from the ear vein and hematocrit was determined. About 200 μl of blood was incubated at 37° C. for 1 hour with hyperosmolar sucrose buffer containing 0.1 mM Ouabain in the presence and absence of test sample. After the incubation period, the reaction was stopped by addition of 5 ml of ice cold MgCl2 solution containing 0.1 mM Ouabain. The erythrocytes were washed three times with 5 ml quantities of MgCl2 solution. They were hemolyzed by the addition of 4 ml of distilled water and the sodium content of the hemolyzed was determined by flame-photometry. The activity of the test compound was determined by its ability to reduce the sodium content of the erythrocyte and was expressed as IC50 which is the concentration necessary to reduce the erythrocyte sodium content to 50%.

isolated rat heart = test: Reperfusion Induced Arrhythmias in the isolated rat heart; set-up: species or system rat (Charles Foster); conditions: LAD ligation 15 min, reperfusion 30 min, read-out: IC50 for VFD (50% reduction of duration of ventricular fibrillation)
Experimental: Reperfusion Induced Arrhythmias in the isolated rat heart:
[…] Charles Foster rats of either sex (250-300 g) were sacrificed by stunning and exsanguination. Hearts were quickly removed and perfused according to Langendorffs method. Different concentrations of test compound were added into the perfusing medium. After 20 min of the equilibration period Left Anterior Descending (LAD) coronary artery was ligated. 15 minutes later the ligature was removed and reperfusion was allowed for next 30 minutes. During reperfusion period ECG was monitored. Duration of Ventricular Fibrillation (VFD) was the main parameter of assessment. Anti-arrhythmic activity was examined as the concentration of the test compound required to cause a 50% reduction of the VFD.

anaesthetized rats = test: Ischemia-Induced Arrhythmias in Anaesthetized Rats; format: in vivo, rat (Male Charles Foster); set-up: key to VF Percent inhibition: NP: No protection
Experimental: Ischemia-Induced Arrhythmias in Anaesthetized Rats:
Male Charles Foster rats (220-260 g) were anaesthetized with Pentobarbitone sodium. Animals were artificially ventilated. Blood pressure was recorded through carotid artery. Thoracotomy was performed to expose the heart. Left Anterior Descending (LAD) coronary artery was identified. Test compound was administered either orally […] before anaesthesia (40 minutes before LAD artery ligation) or intravenously (5 minutes before LAD artery ligation). Resulting arrhythmias during the 15 minute period of ligation were recorded and analyzed according to Lambeth Convention (Walker M. J. A, et al, 1988, Cardiovascular Research, 22, 447-455). Antiarrhythmic effect of the test compound was expressed as dose dependent inhibition of the duration of Ventricular Tachycardia (VT) and Ventricular Fibrillation (VF).

anaesthetized rat = test: Myocardial Infarction in the Anaesthetized Rat; format: in vivo; conditions: intravenous 5 minutes before ligation; 1 h ligation, 1 h reperfusion
Experimental: Myocardial Infarction in the Anaesthetized Rat:
Rats were prepared as in earlier experiments. Compounds were administered intravenously 5 minutes before ligation. The experiment consisted of one hour of ligation followed by one hour of reperfusion. Myocardial infarction was assessed by double dye technique using Evans blue and 2,3,5-Triphenyltetrazolium to identify area at risk and area of infarction respectively. Extent of infarction was expressed as a percent of area at risk. (Simpson et al, 1987, Circulation Research, 60, 666-673)

[1] = tested on: disturbances in cardiac rhythm; conditions: Circulation 79, 1257-1263 (1989); cited from earlier work

T1 sequence (P23791 whole entry): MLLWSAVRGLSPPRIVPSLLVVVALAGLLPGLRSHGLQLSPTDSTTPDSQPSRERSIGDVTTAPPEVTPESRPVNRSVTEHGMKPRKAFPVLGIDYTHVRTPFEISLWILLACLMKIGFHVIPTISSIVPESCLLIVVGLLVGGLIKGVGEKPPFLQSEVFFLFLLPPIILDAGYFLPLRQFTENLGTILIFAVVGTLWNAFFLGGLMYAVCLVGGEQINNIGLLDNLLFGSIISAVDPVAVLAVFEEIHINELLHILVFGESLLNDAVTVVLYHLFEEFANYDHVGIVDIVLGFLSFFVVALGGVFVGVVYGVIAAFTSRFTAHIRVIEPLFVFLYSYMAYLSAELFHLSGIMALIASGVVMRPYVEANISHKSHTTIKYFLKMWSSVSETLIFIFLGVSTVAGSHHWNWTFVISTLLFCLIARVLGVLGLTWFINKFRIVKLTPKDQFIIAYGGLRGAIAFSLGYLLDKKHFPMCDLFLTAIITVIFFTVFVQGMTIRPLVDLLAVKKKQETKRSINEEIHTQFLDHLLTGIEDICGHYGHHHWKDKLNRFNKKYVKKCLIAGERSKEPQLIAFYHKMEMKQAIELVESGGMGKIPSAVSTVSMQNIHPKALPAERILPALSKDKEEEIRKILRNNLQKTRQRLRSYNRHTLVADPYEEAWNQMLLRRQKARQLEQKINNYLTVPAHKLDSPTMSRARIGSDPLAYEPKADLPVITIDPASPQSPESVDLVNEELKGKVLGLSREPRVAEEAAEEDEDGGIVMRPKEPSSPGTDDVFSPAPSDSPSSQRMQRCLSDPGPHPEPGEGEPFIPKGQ

Row | SMILES | suppression of artificially induced ventricular fibrillation (rat hearts) | IC50 (Na^+ /H^+ -exchanger) [nM] | IC50 (isolated rat heart) [nM] | VF Percent inhibition (anaesthetized rats; Intravenous, 0.1 mg/kg) [%] | VT Percent inhibition (anaesthetized rats; Intravenous, 0.1 mg/kg) [%] | VF Percent inhibition (anaesthetized rats; Intravenous, 0.3 mg/kg) [%] | VT Percent inhibition (anaesthetized rats; Intravenous, 0.3 mg/kg) [%] | VF Percent inhibition (anaesthetized rats; Intravenous, 1.0 mg/kg) [%] | VT Percent inhibition (anaesthetized rats; Intravenous, 1.0 mg/kg) [%] | VF Percent inhibition (anaesthetized rats; Oral, 1 mg/kg) [%] | VT Percent inhibition (anaesthetized rats; Oral, 1 mg/kg) [%] | Protection against infarction (anaesthetized rat) [%] | further results
1 | CCN(c1nc(N)c(C(=O)N=C(N)N)nc1Cl)C(C)C [ethylisopropylamiloride] | even more potent than amiloride | – | – | – | – | – | – | – | – | – | – | – | –
2 | CC1=C(C(=O)N=C(N)N)Cc2c(Cl)cccc21 [Compound 10] | – | 18 | 17 | 100 | 20 ± 24 | 100 | 81 ± 8 | 100 | 97 ± 1 | 100 | 67 ± 11 | 68 | VF Percent inhibition (anaesthetized rats; Oral, 0.1 mg/kg): NP; VT Percent inhibition (anaesthetized rats; Oral, 0.1 mg/kg): 32 ± 12%; VF Percent inhibition (anaesthetized rats; Oral, 0.3 mg/kg): 84%; VT Percent inhibition (anaesthetized rats; Oral, 0.3 mg/kg): 69 ± 11%
3 | N=C(N)NC(=O)c1nc(Cl)c(N)nc1N [amiloride] | suppress an artificially induced ventricular fibrillation completely | – | – | – | – | – | – | – | – | – | – | – | antiarrhythmic effect [1]: only slight
4 | CC1=C(C(=O)N=C(N)N)Cc2ccccc21 [Compound 2] | – | 90 | 25 | 100 | 57 ± 17 | 100 | 90 ± 3 | 100 | 98 ± 1 | 68 | 26 ± 0 | 17 | VF Percent inhibition (anaesthetized rats; Oral, 3 mg/kg): 93%; VT Percent inhibition (anaesthetized rats; Oral, 3 mg/kg): 31 ± 21%; VF Percent inhibition (anaesthetized rats; Oral, 10 mg/kg): 00%; VT Percent inhibition (anaesthetized rats; Oral, 10 mg/kg): 73 ± 8%
